Here are results for six compounds from ChEMBL document CHEMBL6153163, “Novel 6-Substituted-3-Phenylisoindolin-1-ones as Cbl-B Inhibitors for Treating Cancer” (ACS Med Chem Lett, 2025).

The target in the assay is E3 ubiquitin-protein ligase CBL-B (Homo sapiens, UniProt Q13191). The experiment in a line: Inhibition of biotin-tagged Cbl-B (unknown origin) pre-incubated with compound for 60 min followed by Lck addition and measured after 90 mins in presence of ATP by TR-FRET based assay.
Chain of E3 ubiquitin-protein ligase CBL-B (Q13191 whole entry): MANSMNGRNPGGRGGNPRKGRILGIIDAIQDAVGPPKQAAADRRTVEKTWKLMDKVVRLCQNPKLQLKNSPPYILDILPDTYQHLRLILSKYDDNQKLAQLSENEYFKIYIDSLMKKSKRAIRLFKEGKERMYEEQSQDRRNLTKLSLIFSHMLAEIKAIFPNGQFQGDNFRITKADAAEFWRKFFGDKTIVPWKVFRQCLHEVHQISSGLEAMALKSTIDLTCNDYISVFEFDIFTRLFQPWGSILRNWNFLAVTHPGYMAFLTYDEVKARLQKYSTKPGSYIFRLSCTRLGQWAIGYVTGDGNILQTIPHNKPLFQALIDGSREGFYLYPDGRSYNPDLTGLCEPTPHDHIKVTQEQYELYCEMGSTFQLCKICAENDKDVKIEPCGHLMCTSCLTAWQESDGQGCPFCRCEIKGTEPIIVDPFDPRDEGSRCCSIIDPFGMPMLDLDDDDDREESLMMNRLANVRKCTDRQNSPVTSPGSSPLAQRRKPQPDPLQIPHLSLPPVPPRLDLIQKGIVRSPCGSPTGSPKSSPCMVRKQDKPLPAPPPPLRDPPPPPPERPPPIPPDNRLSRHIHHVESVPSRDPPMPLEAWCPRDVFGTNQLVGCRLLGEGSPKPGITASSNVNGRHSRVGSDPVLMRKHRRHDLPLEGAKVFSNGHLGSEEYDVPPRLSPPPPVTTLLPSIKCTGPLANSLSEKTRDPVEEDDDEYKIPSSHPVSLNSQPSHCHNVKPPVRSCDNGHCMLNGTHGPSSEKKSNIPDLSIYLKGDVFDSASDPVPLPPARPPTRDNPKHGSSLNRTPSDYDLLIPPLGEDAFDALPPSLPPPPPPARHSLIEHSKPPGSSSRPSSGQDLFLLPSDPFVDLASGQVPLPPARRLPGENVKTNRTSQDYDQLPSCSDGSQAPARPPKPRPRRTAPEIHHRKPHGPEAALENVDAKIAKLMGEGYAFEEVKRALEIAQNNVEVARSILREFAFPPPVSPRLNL
Turning to `CC(C)CNCc1cc(Cl)c2c(c1)C(=O)N(c1cccc([C@H](c3nncn3C)[C@H]3C[C@@H](F)C3)c1)C2`, the concentration for half-maximal inhibition (IC50) – broadly, the concentration at which inhibition is half-maximal – worked out at 4.3 nM.
With `Cn1cnnc1[C@]1(c2cccc(N3Cc4c(Cl)cc(CNCC5CCC5)cc4C3=O)c2)C[C@@H](Cl)C1`, the concentration for half-maximal inhibition (IC50) came to 3.6 nM.
`CC(C)CNCc1cc(Cl)c2c(c1)C(=O)N(c1cccc([C@H](c3nncn3C)[C@H]3C[C@@H](CC#N)C3)c1)C2`: the IC50 worked out at 4.2 nM.
For the compound `Cn1cnnc1[C@]1(c2cccc(N3Cc4c(Cl)cc(CNCC5CCC5)cc4C3=O)c2)C[C@H](Cl)C1`, the IC50 stood at 4.1 nM.
For `C[C@@H](NCc1cc2c(c(C(F)F)c1)CN(c1cccc([C@H](c3nncn3C)C3CC(F)C3)c1)C2=O)C1CCC1` (stereo partly specified), the half-inhibitory concentration (IC50) was found to be 4.2 nM.
Regarding `C[C@@H](NCc1cc2c(c(C(F)F)c1)CN(c1cccc([C@]3(c4nncn4C)C[C@H](Cl)C3)c1)C2=O)C1CCC1`, the half-inhibitory concentration (IC50) was determined as 4 nM.
